Assay results published in ChEMBL document CHEMBL4371015, “Synthesis and biological evaluation of bifendate derivatives bearing acrylamide moiety as novel antioxidant agents” (Eur J Med Chem, 2019).
Values belong to the compound of their own block, whether it stands above or below them. Calls of active or inactive are those of the source. No cut-off for these calls is given here.

How the values were obtained:
[1] = tested on: HBZY-1; assay: Cytotoxicity against rat HBZY-1 cells assessed as decrease in cell viability up to 200 uM after 72 hrs by MTT assay; assay type: cell-based; details: hbzy-1, 72 h
[2] = tested on: HBZY-1; assay: Cytotoxicity against rat HBZY-1 cells assessed as decrease in cell viability after 72 hrs by MTT assay; assay type: cell-based; details: HBZY-1, 72 h
[3] = tested on: HBZY-1; assay: Cytoprotection against H2O2-induced cell death in rat HBZY-1 cells assessed as cell viability at 6 uM preincubated for 2 hrs followed by H2O2 addition and measured after 24 hrs by MTT assay (reference value: 62.1%); assay type: functional; details: read-out: Activity
[4] = tested on: HBZY-1; assay: Cytoprotection against H2O2-induced cell death in rat HBZY-1 cells assessed as increase in cell viability preincubated for 2 hrs followed by H2O2 addition and measured after 24 hrs by MTT assay; assay type: functional, cell-based
[5] = tested on: HBZY-1; assay: Cytoprotection against H2O2-induced cell death in rat HBZY-1 cells assessed as increase in cell viability at 6 uM preincubated for 2 hrs followed by H2O2 addition and measured after 24 hrs by MTT assay; assay type: functional, cell-based
[6] = target: T1, Nuclear factor erythroid 2-related factor 2 (Rattus norvegicus) (UniProt O54968); assay: Activation of Nrf2 in rat HBZY-1 cells assessed as increase in HO-1 level at 6 uM by Western blot analysis; assay type: cell-based
T1 sequence (whole entry): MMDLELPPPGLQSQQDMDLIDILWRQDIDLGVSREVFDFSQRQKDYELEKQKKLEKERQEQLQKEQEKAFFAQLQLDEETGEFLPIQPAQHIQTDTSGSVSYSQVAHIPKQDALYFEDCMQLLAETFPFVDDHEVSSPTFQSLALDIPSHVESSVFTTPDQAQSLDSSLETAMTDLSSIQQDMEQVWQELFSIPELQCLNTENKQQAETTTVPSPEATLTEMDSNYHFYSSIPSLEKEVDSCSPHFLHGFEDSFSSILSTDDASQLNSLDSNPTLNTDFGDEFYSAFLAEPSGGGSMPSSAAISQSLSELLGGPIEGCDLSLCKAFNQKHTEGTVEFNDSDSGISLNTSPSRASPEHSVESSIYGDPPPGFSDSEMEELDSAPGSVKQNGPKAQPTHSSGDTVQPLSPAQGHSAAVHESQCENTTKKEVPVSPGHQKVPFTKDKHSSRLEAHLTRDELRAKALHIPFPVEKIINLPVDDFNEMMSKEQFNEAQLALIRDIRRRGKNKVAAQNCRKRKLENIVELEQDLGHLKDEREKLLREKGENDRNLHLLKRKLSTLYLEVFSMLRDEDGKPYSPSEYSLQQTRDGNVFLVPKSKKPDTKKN

[7] = target: T1, Nuclear factor erythroid 2-related factor 2 (Rattus norvegicus); assay: Activation of Nrf2 in rat HBZY-1 cells assessed as increase in NQO-1 mRNA expression at 6 uM after 24 hrs by RT-PCR analysis; assay type: cell-based
[8] = target: T1, Nuclear factor erythroid 2-related factor 2 (Rattus norvegicus); assay: Activation of Nrf2 in rat HBZY-1 cells assessed as increase in GCLM level at 6 uM by Western blot analysis; assay type: cell-based
[9] = target: T1, Nuclear factor erythroid 2-related factor 2 (Rattus norvegicus); assay: Activation of Nrf2 in rat HBZY-1 cells assessed as increase in NQO-1 level at 6 uM by Western blot analysis; assay type: cell-based
[10] = target: T1, Nuclear factor erythroid 2-related factor 2 (Rattus norvegicus); assay: Activation of Nrf2 in rat HBZY-1 cells assessed as increase in HO-1 mRNA expression at 6 uM after 24 hrs by RT-PCR analysis; assay type: cell-based
[11] = target: T1, Nuclear factor erythroid 2-related factor 2 (Rattus norvegicus); assay: Activation of Nrf2 in rat HBZY-1 cells assessed as increase in GCLC level at 6 uM by Western blot analysis; assay type: cell-based
[12] = target: T1, Nuclear factor erythroid 2-related factor 2 (Rattus norvegicus); assay: Activation of Nrf2 in rat HBZY-1 cells assessed as increase in GCLC mRNA expression at 6 uM after 24 hrs by RT-PCR analysis; assay type: cell-based
[13] = target: T1, Nuclear factor erythroid 2-related factor 2 (Rattus norvegicus); assay: Activation of Nrf2 in rat HBZY-1 cells assessed as increase in GCLM mRNA expression at 6 uM after 24 hrs by RT-PCR analysis; assay type: cell-based
[14] = tested on: HBZY-1; assay: Cytoprotection against H2O2-induced cell death in rat HBZY-1 cells assessed as cell viability at 100 uM preincubated for 2 hrs followed by H2O2 addition and measured after 24 hrs by MTT assay (reference value: 62.1%); assay type: functional; details: read-out: Activity
[15] = target: T2, Keap1/Nrf2 (Homo sapiens) (UniProt Q16236+Q14145); assay: Induction of Keap1/Nrf2 (unknown origin) interaction assessed as reduction in Nfr2 level in absence of DTT by Western blot analysis; assay type: protein assay
T2 sequence (Q14145 whole entry, looked up, one chain of several): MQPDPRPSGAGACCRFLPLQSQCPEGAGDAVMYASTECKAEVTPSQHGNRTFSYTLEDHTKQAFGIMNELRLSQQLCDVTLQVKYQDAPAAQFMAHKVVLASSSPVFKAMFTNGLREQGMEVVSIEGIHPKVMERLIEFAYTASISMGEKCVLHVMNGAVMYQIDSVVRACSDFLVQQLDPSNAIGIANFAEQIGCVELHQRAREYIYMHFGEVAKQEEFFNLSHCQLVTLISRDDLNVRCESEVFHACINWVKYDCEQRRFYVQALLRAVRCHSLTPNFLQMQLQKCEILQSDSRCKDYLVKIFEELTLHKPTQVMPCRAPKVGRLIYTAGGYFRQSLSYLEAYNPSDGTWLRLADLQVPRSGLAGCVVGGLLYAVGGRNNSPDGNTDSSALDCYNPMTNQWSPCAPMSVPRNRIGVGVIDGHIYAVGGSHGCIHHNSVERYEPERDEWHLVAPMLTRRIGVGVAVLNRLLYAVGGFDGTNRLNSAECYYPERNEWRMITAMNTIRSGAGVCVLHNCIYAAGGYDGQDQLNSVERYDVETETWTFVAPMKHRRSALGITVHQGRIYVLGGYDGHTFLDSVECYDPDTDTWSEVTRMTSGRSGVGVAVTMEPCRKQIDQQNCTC

[16] = tested on: HBZY-1; assay: Cytoprotection against H2O2-induced cell death in rat HBZY-1 cells assessed as increase in cell viability at 6 uM preincubated for 2 hrs with 20 nM BSO prior to compound addition followed by 2 hrs incubation before H2O2 addition and measured after 24 hrs by MTT assay; assay type: functional, cell-based
[17] = tested on: HBZY-1; assay: Cytoprotection against H2O2-induced cell death in rat HBZY-1 cells assessed as increase in cell viability at 6 uM preincubated for 2 hrs with 6 nM ZNPP prior to compound addition followed by 2 hrs incubation before H2O2 addition and measured after 24 hrs by MTT assay; assay type: functional, cell-based
[18] = tested on: HBZY-1; assay: Antioxidant activity in rat HBZY-1 cells assessed as inhibition of H2O2-induced ROS accumulation […] for 12 hrs followed by H2O2 addition and measured after 3 hrs by DCFHA-DA/FITC staining-based FACS analysis; assay type: functional, cell-based
[19] = target: T3, Nuclear factor erythroid 2-related factor 2 (Homo sapiens) (UniProt Q16236); assay: Activation of Nrf2 (unknown origin) expressed in HEK293 cells after 16 hrs by luciferase reporter gene assay; assay type: cell-based
T3 sequence (whole entry): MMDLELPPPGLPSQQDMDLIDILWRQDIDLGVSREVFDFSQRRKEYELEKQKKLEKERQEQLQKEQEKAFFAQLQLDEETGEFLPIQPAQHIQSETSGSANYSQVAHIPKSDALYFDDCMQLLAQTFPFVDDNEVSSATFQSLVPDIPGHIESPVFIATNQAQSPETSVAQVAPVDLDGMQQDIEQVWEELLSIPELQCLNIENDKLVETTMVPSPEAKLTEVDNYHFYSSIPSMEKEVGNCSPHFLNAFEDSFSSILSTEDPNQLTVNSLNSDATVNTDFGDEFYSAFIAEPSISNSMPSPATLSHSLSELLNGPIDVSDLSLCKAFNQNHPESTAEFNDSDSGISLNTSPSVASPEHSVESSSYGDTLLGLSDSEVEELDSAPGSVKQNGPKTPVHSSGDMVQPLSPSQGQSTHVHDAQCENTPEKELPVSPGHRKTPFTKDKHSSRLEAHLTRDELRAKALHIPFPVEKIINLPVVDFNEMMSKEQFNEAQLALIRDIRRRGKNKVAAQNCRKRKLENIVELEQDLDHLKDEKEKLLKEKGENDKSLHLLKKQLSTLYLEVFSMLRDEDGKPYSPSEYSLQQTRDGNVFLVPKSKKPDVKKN

[20] = tested on: HBZY-1; assay: Cytoprotection against H2O2-induced cell death in rat HBZY-1 cells assessed as increase in cell viability at 6 uM preincubated for 2 hrs with 200 nM TRG prior to compound addition followed by 2 hrs incubation before H2O2 addition and measured after 24 hrs by MTT assay; assay type: functional, cell-based
[21] = tested on: HBZY-1; assay: Cytoprotection against H2O2-induced cell death in rat HBZY-1 cells assessed as increase in cell viability at 6 uM preincubated for 2 hrs with 10 nM BSO prior to compound addition followed by 2 hrs incubation before H2O2 addition and measured after 24 hrs by MTT assay; assay type: functional, cell-based
[22] = tested on: HBZY-1; assay: Cytoprotection against H2O2-induced cell death in rat HBZY-1 cells assessed as increase in cell viability at 6 uM preincubated for 2 hrs with 3 nM ZNPP prior to compound addition followed by 2 hrs incubation before H2O2 addition and measured after 24 hrs by MTT assay; assay type: functional, cell-based
[23] = target: T2, Keap1/Nrf2 (Homo sapiens); assay: Induction of Keap1/Nrf2 (unknown origin) interaction assessed as increase in Nfr2 level in absence of DTT by Western blot analysis; assay type: protein assay
[24] = tested on: HBZY-1; assay: Cytoprotection against H2O2-induced cell death in rat HBZY-1 cells assessed as increase in cell viability at 6 uM pre-incubated for 2 hrs with 100 nM TRG prior to compound addition followed by 2 hrs incubation before H2O2 addition and measured after 24 hrs by MTT assay; assay type: functional, cell-based
[25] = target: T2, Keap1/Nrf2 (Homo sapiens); assay: Induction of Keap1/Nrf2 (unknown origin) interaction assessed as increase in Nfr2 level in presence of DTT by Western blot analysis; assay type: protein assay
[26] = target: T2, Keap1/Nrf2 (Homo sapiens); assay: Induction of Keap1/Nrf2 (unknown origin) interaction assessed as reduction in Nfr2 level in presence of DTT by Western blot analysis; assay type: protein assay

Compound: COC(=O)c1cc(OC)c2c(c1-c1c(/C=C(\C#N)C(=O)Nc3ccccc3OC)cc(OC)c3c1OCO3)OCO2
Activity [1]: Toxic | IC50 [2]: > 200 µM | viability at 6 µM [3]: 99.2% | Activity [4]: Dose-dependent effect

Compound: COc1ccccc1NC(=O)/C(C#N)=C/c1ccc(OC)c(OC)c1
IC50 [2]: > 200 µM | Activity [5]: inactive

Compound: COC(=O)c1cc(OC)c2c(c1-c1c(/C=C(\C#N)C(=O)NCCc3ccc(OC)c(OC)c3)cc(OC)c3c1OCO3)OCO2
IC50 [2]: > 200 µM

Compound: CCCCNC(=O)/C=C/c1cc(OC)c2c(c1-c1c(C(=O)OC)cc(OC)c3c1OCO3)OCO2
IC50 [2]: > 200 µM

Activity [6]: Active | Activity [7]: Active | Activity [8]: Active | Activity [9]: Active | Activity [10]: Active | Activity [11]: Active | Activity [12]: Active | Activity [13]: Active
Compound: Oc1ccc(/C=C/c2cc(O)cc(O)c2)cc1

Compound: COc1ccccc1NC(=O)/C(C#N)=C/c1cc(OC)c(OC)c(OC)c1
IC50 [2]: > 200 µM | Activity [5]: inactive

Compound: COC(=O)c1cc(OC)c2c(c1-c1c(/C=C/C(=O)Nc3ccccc3OC)cc(OC)c3c1OCO3)OCO2
IC50 [2]: > 200 µM | viability at 6 µM [3]: 90.6%

Compound: COC(=O)c1cc(OC)c2c(c1-c1c(/C=C/C(=O)NCCc3ccc(OC)c(OC)c3)cc(OC)c3c1OCO3)OCO2
IC50 [2]: > 200 µM

Compound: CCCCNC(=O)/C(C#N)=C/c1cc(OC)c2c(c1-c1c(C(=O)OC)cc(OC)c3c1OCO3)OCO2
IC50 [2]: > 200 µM | viability at 6 µM [3]: 95.3%

Compound: COC(=O)c1cc(OC)c2c(c1-c1c(/C=C(\C#N)C(=O)Nc3ccc(OC)c(OC)c3)cc(OC)c3c1OCO3)OCO2
IC50 [2]: > 200 µM

Compound: COC(=O)c1cc(OC)c2c(c1-c1c(C(=O)OC)cc(OC)c3c1OCO3)OCO2 [BIFENDATE]
viability at 6 µM [3]: 66.1% | viability at 100 µM [14]: 89.8%

Compound: COC(=O)c1cc(OC)c2c(c1-c1c(/C=C/C(=O)Nc3cc(OC)c(OC)c(OC)c3)cc(OC)c3c1OCO3)OCO2
IC50 [2]: > 200 µM

Compound: COc1ccc(/C=C(\C#N)C(=O)Nc2ccccc2OC)cc1
IC50 [2]: > 200 µM | Activity [5]: inactive

Compound: COC(=O)c1cc(OC)c2c(c1-c1c(/C=C(\C#N)C(=O)NCc3ccc(OC)cc3)cc(OC)c3c1OCO3)OCO2
IC50 [2]: > 200 µM

Compound: COC(=O)c1cc(OC)c2c(c1-c1c(/C=C/C(=O)Nc3ccc(OC)cc3)cc(OC)c3c1OCO3)OCO2
IC50 [2]: > 200 µM

Compound: COC(=O)c1cc(OC)c2c(c1-c1c(/C=C/C(=O)NCc3ccc(OC)cc3)cc(OC)c3c1OCO3)OCO2
IC50 [2]: > 200 µM

Compound: COC(=O)c1cc(OC)c2c(c1-c1c(/C=C(\C#N)C(=O)Nc3cc(OC)c(OC)c(OC)c3)cc(OC)c3c1OCO3)OCO2
IC50 [2]: > 200 µM

Compound: COC(=O)c1cc(OC)c2c(c1-c1c(/C=C/C(=O)Nc3ccc(OC)c(OC)c3)cc(OC)c3c1OCO3)OCO2
IC50 [2]: > 200 µM

Activity [15]: Active | Activity [19]: Dose-dependent effect | Activity [23]: Active | inhibition [25]: inactive | inhibition [26]: inactive
Compound: COC(=O)c1cc(OC)c2c(c1-c1c(/C=C(\C#N)C(=O)Nc3ccc(OC)cc3)cc(OC)c3c1OCO3)OCO2
Activity [1]: Non-Toxic | Activity [16]: inactive | Activity [17]: inactive | inhibition [18]: Dose-dependent effect | IC50 [2]: > 200 µM | viability at 6 µM [3]: 97.2% | Activity [20]: inactive | Activity [21]: inactive | Activity [22]: inactive | Activity [4]: Dose-dependent effect | Activity [24]: inactive
